Data taken from patent publication US12030875B2, “EIF4E inhibitors and uses thereof” (PIC Therapeutics, Inc., priority 2018, dated 2024).

Target: T1, Human eIF4E (Homo sapiens, UniProt P06730)
T1 construct: Human eIF4E (aa 28-217) with a C-terminal His-tag; made in house
Assay: Human eIF4E/4G2 binding assay (TR-FRET)
Settings: eIF4E (aa 28-217) with biotin labeled 4G2 peptide
Experimental: Human eIF4E (aa 28-217) with a C-terminal His-tag was expressed in E. coli in inclusion bodies. The protein was solubilized with 8 M urea and purified under denaturing conditions using nickel-charged HisTrap HP columns (GE Healthcare). The purified protein was then refolded by diluting in 20 mM Hepes pH 7.0, 0.5 M NaCl, 1 mM DTT, 1 mM EDTA, 0.5 M arginine plus 6 M urea, and then dialyzing overnight into the same buffer without the urea. The protein was further dialyzed into 20 mM Hepes, pH 6.5, 50 mM NaCl, 1 mM EDTA, 1 mM DTT, and concentrated using Hitrap SP sepharose FF columns (GE Healthcare). The concentrated protein was dialyzed into 20 mM Hepes, pH 7.0, 0.5M NaCl, 5 mM DTT and 10% glycerol, and stored at −80° C. until use.
Test compounds (3.43 mM stock in DMSO) were diluted 2-fold in series in DMSO (10 concentration points). Compound solutions (1.2 μl/well) were added into black 384-well polypropylene microplates (Matrix, Thermal Scientific). Twenty-two microliters per well of Assay Buffer (50 mM NaPi, pH 6.5, 50 mM KCl, 1 mM DTT and 0.5 mg/ml gamma globulin) and eight microliters per well of 82.5 nM purified eIF4E in Assay Buffer were added. The samples were incubated at room temperature (20-23° C.) for 15 min. Biotin labeled 4G2 peptide (Ac-Lys-Gln-Tyr-Asp-Arg-Glu-Phe-Leu-Leu-Asp-Phe-Gln-Phe-Met-Pro-Lys(Aha-Bio)-NH2, 1.75 μM stock in DMSO) was diluted to 0.14 μM in Assay Buffer (without DTT) and 5 μl/well was added. The samples were incubated at room temperature for 15 min. Five microliters per well of 6.4 nM Eu-streptavidin (Eu-SA, Perkin Elmer) and 80 nM Allophycocyanin (APC)-anti His antibody (Columbia Biosciences) in Assay Buffer (without DTT) were then added and the samples were incubated at room temperature for 20 min.
Assay signals were monitored by reading excitation at 340 nm and emission fluorescence at 615 nm and 665 nm on an Envision reader (Perkin Elmer). Normalized TR-FRET (time-resolved fluorescence resonance energy transfer) assay signal (Rn) was calculated by the formula: Rn═[(A−Ba−C×D)/(D−Bd)]×(Dc−Bd) • Where A is the fluorescence intensity of the sample at 665 nm, • D is the fluorescence intensity of the sample at 615 nm, • Ba and Bd are plate backgrounds at 665 nm and 615 nm, respectively, • Dc is the fluorescence intensity of 0.78 nM Eu-SA in the assay buffer at 615 nm • The cross-talk factor (C) is determined by the following formula: C=(Ac−Ba)/(Dc−Bd) • Where Ac is the fluorescence intensity of 0.78 nM Eu-SA in the assay buffer at 665 nm.
IC50 values were calculated using xLFit program (IDBS).

T1 sequence (P06730 28-217): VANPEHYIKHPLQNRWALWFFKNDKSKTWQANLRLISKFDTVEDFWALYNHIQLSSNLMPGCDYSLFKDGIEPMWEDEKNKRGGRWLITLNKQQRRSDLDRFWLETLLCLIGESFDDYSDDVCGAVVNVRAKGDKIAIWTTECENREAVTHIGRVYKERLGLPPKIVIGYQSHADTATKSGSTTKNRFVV

Row | Compound | IC50
1 | CC(CC(=O)O)Nc1nc(-c2ccc(-c3ccc(F)cc3)cc2)c(Br)s1 (centres unmarked) [Compound I-94] | 5 to 25 µM
2 | CC(C)(CNc1nc(-c2ccc(-c3ccc(F)cc3)cc2)c(-c2ccccc2)s1)C(=O)O [Compound I-72] | < 5 µM
3 | O=C(O)C1CCN(c2nc(-c3ccc(-c4cnco4)cc3)c(-c3cccnc3)s2)CC1 [Compound I-54] | > 25 µM
4 | CC1(C(=O)O)CN(c2nc(-c3ccc(Oc4ccccc4)cc3)c(-c3ccccc3)s2)C1 [Compound I-163] | 5 to 25 µM
5 | O=C(O)C1CCN(c2nc(-c3ccc(-c4cnco4)cc3)c(-c3cccc4[nH]ccc34)s2)CC1 [Compound I-55] | > 25 µM
6 | O=C(O)C1CCCN(c2nc(-c3ccc(-c4ccc(F)cc4)cc3)c(-c3cccc4[nH]ccc34)s2)C1 (centres unmarked) [Compound I-109] | < 5 µM
7 | O=C(O)C1CC(CNc2nc(-c3ccc(-c4ccc(F)cc4)cc3)c(-c3ccccc3)s2)C1 (centres unmarked) [Compound I-128] | < 5 µM
8 | O=C(O)C1CN(c2nc(-c3ccc(-c4cnco4)cc3)c(-c3cncnc3)s2)C1 [Compound I-10] | > 25 µM
9 | O=C(O)C1CN(c2nc(-c3ccc(-c4cnco4)cc3)c(-c3cccc4[nH]ccc34)s2)CCO1 (centres unmarked) [Compound I-59] | > 25 µM
10 | O=C(O)C1CCCN(c2nc(-c3ccc(-c4cnco4)cc3)c(-c3ccccc3)s2)C1 (centres unmarked) [Compound I-31] | > 25 µM
11 | O=C(O)C1(CNc2nc(-c3ccc(-c4cnco4)cc3)c(-c3cccc4[nH]ccc34)s2)CC1 [Compound I-47] | > 25 µM
12 | CC(CNc1nc(-c2ccc(-c3cnco3)cc2)c(-c2cncnc2)s1)C(=O)O (centres unmarked) [Compound I-28] | > 25 µM
13 | O=C(O)[C@H]1CCCN(c2nc(-c3ccc(Oc4ccccc4)cc3)c(-c3ccccc3)s2)C1 [Compound I-228] | < 5 µM
14 | CC1(C(=O)O)CN(c2nc(-c3ccc(Oc4ccccc4)cc3)cs2)C1 [Compound I-162] | > 25 µM
15 | CC(CC(=O)O)Nc1nc(-c2ccc(-c3ccc(F)cc3)cc2)c(-c2ccccc2)s1 (centres unmarked) [Compound I-95] | 5 to 25 µM
16 | CC(C)(CC(=O)O)Nc1nc(-c2ccc(Oc3ccccc3)cc2)c(-c2cncnc2)s1 [Compound I-150] | > 25 µM
17 | CC(CC(=O)O)Nc1nc(-c2ccc(-c3cnco3)cc2)c(-c2ccccc2)s1 (centres unmarked) [Compound I-22] | > 25 µM
18 | O=C(O)C1CC(CNc2nc(-c3ccc(-c4ccc(F)cc4)cc3)c(-c3cccc4[nH]ccc34)s2)C1 (centres unmarked) [Compound I-131] | 5 to 25 µM
19 | O=C(O)CC1CCCN1c1nc(-c2ccc(Oc3ccccc3)cc2)c(-c2cccnc2)s1 (centres unmarked) [Compound I-188] | > 25 µM
20 | CC(C)C(CC(=O)O)Nc1nc(-c2ccc(Oc3ccccc3)cc2)c(-c2cccc3[nH]ccc23)s1 (centres unmarked) [Compound I-152] | 5 to 25 µM

Row | Compound | IC50
21 | Cc1sc(N2CCOC(C(=O)O)C2)nc1-c1ccc(-c2ccc(F)cc2)cc1 (centres unmarked) [Compound I-236, 4-(4-(4′-fluorobiphenyl-4-yl)-5-methylthiazol-2-yl) morpholine-2-carboxylic acid] | 5 to 25 µM
22 | CCCC(CNc1nc(-c2ccc(Oc3ccccc3)cc2)c(-c2cncnc2)s1)C(=O)O (centres unmarked) [Compound I-169] | > 25 µM
23 | O=C(O)C1CCCN(c2nc(-c3ccc(Oc4ccccc4)cc3)c(-c3cncnc3)s2)C1 (centres unmarked) [Compound I-183] | > 25 µM
24 | CC(CNc1nc(-c2ccc(Oc3ccccc3)cc2)c(-c2cccc3[nH]ccc23)s1)C(=O)O (centres unmarked) [Compound I-180] | > 25 µM
25 | CCCC(CNc1nc(-c2ccc(-c3cnco3)cc2)c(-c2ccccc2)s1)C(=O)O (centres unmarked) [Compound I-18] | 5 to 25 µM
26 | Cc1sc(NCC(C)C(=O)O)nc1-c1ccc(-c2ccc(F)cc2)cc1 (centres unmarked) [Compound I-230] | 5 to 25 µM
27 | O=C(O)C1CN(c2nc(-c3ccc(-c4ccc(F)cc4)cc3)c(-c3cccc4[nH]ccc34)s2)C1 [Compound I-80] | 5 to 25 µM
28 | O=C(O)C1CC(CNc2nc(-c3ccc(Oc4ccccc4)cc3)c(-c3cccc4[nH]ccc34)s2)C1 (centres unmarked) [Compound I-204] | 5 to 25 µM
29 | CC(CC(=O)O)Nc1nc(-c2ccc(-c3cnco3)cc2)c(-c2cccc3[nH]ccc23)s1 (centres unmarked) [Compound I-25] | > 25 µM
30 | CC(C)C(CC(=O)O)Nc1nc(-c2cccnc2)c(-c2ccc(-c3cnco3)cc2)s1 (centres unmarked) [Compound I-3] | > 25 µM
31 | O=C(O)[C@H]1CCCN(c2nc(-c3ccc(-c4ccc(F)cc4)cc3)c(-c3ccccc3)s2)C1 [Compound I-224] | < 5 µM
32 | O=C(O)C1CN(c2nc(-c3ccc(Oc4ccccc4)cc3)c(-c3cccc4[nH]ccc34)s2)C1 [Compound I-161] | 5 to 25 µM
33 | CCCC(CNc1nc(-c2ccc(-c3cnco3)cc2)c(-c2cccc3[nH]ccc23)s1)C(=O)O (centres unmarked) [Compound I-21] | > 25 µM
34 | CCCC(CNc1nc(-c2ccc(-c3ccc(F)cc3)cc2)cs1)C(=O)O (centres unmarked) [Compound I-87] | > 25 µM
35 | CC1(C(=O)O)CCCN(c2nc(-c3ccc(-c4cnco4)cc3)c(-c3cccc4[nH]ccc34)s2)C1 (centres unmarked) [Compound I-63] | > 25 µM
36 | Cc1nc(N2CCOC(C(=O)O)C2)sc1-c1ccc(-c2ccc(F)cc2)cc1 (centres unmarked) [Compound I-237, 4-(5-(4′-fluorobiphenyl-4-yl)-4-methylthiazol-2-yl) morpholine-2-carboxylic acid] | 5 to 25 µM
37 | CC1(C(=O)O)CN(c2nc(-c3ccc(-c4ccc(F)cc4)cc3)c(-c3ccccc3)s2)C1 [Compound I-83] | < 5 µM
38 | CC(C)C(CC(=O)O)Nc1nc(-c2ccc(-c3ccc(F)cc3)cc2)c(-c2cccnc2)s1 (centres unmarked) [Compound I-68] | > 25 µM
39 | CCCC(CNc1nc(-c2ccc(Oc3ccccc3)cc2)c(-c2ccccc2)s1)C(=O)O (centres unmarked) [Compound I-168] | < 5 µM
40 | O=C(O)C1(CNc2nc(-c3ccc(-c4ccc(F)cc4)cc3)c(-c3cccnc3)s2)CC1 [Compound I-124] | > 25 µM

Row | Compound | IC50
41 | O=C(O)C1CC(CNc2nc(-c3ccc(Oc4ccccc4)cc3)c(-c3ccccc3)s2)C1 (centres unmarked) [Compound I-201] | < 5 µM
42 | O=C(O)CC1CCCN1c1nc(-c2ccc(-c3cnco3)cc2)c(-c2cccc3[nH]ccc23)s1 (centres unmarked) [Compound I-39] | > 25 µM
43 | O=C(O)C1(CNc2nc(-c3ccc(Oc4ccccc4)cc3)c(-c3cccnc3)s2)CC1 [Compound I-198] | > 25 µM
44 | CC(C)(CNc1nc(-c2ccc(Oc3ccccc3)cc2)c(-c2cccc3[nH]ccc23)s1)C(=O)O [Compound I-157] | 5 to 25 µM
45 | O=C(O)C1CCCN(c2nc(-c3ccc(-c4ccc(F)cc4)cc3)cs2)C1 (centres unmarked) [Compound I-105] | 5 to 25 µM
46 | O=C(O)C1CCN(c2nc(-c3ccc(-c4ccc(F)cc4)cc3)c(-c3cccnc3)s2)C1 (centres unmarked) [Compound I-118] | > 25 µM
47 | CC1(C(=O)O)CCCN(c2nc(-c3ccc(-c4cnco4)cc3)c(-c3ccccc3)s2)C1 (centres unmarked) [Compound I-60] | > 25 µM
48 | CC(C)(CNc1nc(-c2ccc(-c3cnco3)cc2)c(-c2ccccc2)s1)C(=O)O [Compound I-5] | > 25 µM
49 | CC1(C(=O)O)CCCN(c2nc(-c3ccc(-c4ccc(F)cc4)cc3)c(-c3ccccc3)s2)C1 (centres unmarked) [Compound I-144] | < 5 µM
50 | O=C(O)C1CN(c2nc(-c3ccc(-c4ccc(F)cc4)cc3)c(-c3cncnc3)s2)CCO1 (centres unmarked) [Compound I-141] | > 25 µM
51 | O=C(O)C1CCN(c2nc(-c3ccc(Oc4ccccc4)cc3)c(-c3cccnc3)s2)C1 (centres unmarked) [Compound I-193] | > 25 µM
52 | O=C(O)C1CCN(c2nc(-c3ccc(Oc4ccccc4)cc3)c(-c3cccnc3)s2)CC1 [Compound I-211] | > 25 µM
53 | O=C(O)C1CN(c2nc(-c3ccc(Oc4ccccc4)cc3)c(-c3cccnc3)s2)CCO1 (centres unmarked) [Compound I-215] | > 25 µM
54 | O=C(O)C1CCN(c2nc(-c3ccc(Oc4ccccc4)cc3)c(-c3cncnc3)s2)C1 (centres unmarked) [Compound I-192] | > 25 µM
55 | O=C(O)C1CC(CNc2nc(-c3ccc(Oc4ccccc4)cc3)cs2)C1 (centres unmarked) [Compound I-200] | > 25 µM
56 | O=C(O)CC1CCCN1c1nc(-c2ccc(-c3ccc(F)cc3)cc2)c(-c2cccnc2)s1 (centres unmarked) [Compound I-113] | > 25 µM
57 | CC1(C(=O)O)CN(c2nc(-c3ccc(Oc4ccccc4)cc3)c(-c3cccc4[nH]ccc34)s2)C1 [Compound I-166] | 5 to 25 µM
58 | CCCC(CNc1nc(-c2ccc(-c3ccc(F)cc3)cc2)c(-c2cccnc2)s1)C(=O)O (centres unmarked) [Compound I-91] | > 25 µM
59 | O=C(O)C1CCCN(c2nc(-c3ccc(-c4ccc(F)cc4)cc3)c(C3CC3)s2)C1 (centres unmarked) [Compound I-232] | < 5 µM
